Test results published in patent US8808771B2, “Active ingredient delivery system with an amorphous metal salt as carrier” (Firmenich SA, priority 2006, dated 2014).

Test: Extinction coefficient (phenol band at 280 nm) before and after addition of ACAP, entrapment of naringin
Assay type: physicochemical
Conditions: for E-value (extinction coefficient, phenol band at 280 nm): diluted 1:12 with 30 wt % ethanolic solution, slightly acidic
Experimental: A conventional double jet precipitation process, which can be operated both batch wise and in a continuous mode, was used. The active ingredient (Naringin) was firstly dissolved in ethanol or ethanol/water medium. A first stream comprising Ca^2+ ions (provided as calcium chloride solution) and a second stream comprising PO4^3− ions (provided as sodium phosphate), were prepared in order to give a resulting carrier component comprising ACAP solution at 10 g/L. A third stream comprising a standard solution of 2 g/L of naringin in 30% ethanol solution was then prepared.
The three streams were jetted separately into a mixing chamber using a standard y-mixer with the reaction being stopped for equal volumes, i.e. 10 ml Ca^2+ stock solution plus 10 ml PO4^3− stock solution into 10 ml naringin. The extinction coefficient (strong phenol band at 280 nm, slightly acidic conditions) was determined after standardized dilution with 30 wt % ethanolic solution (1:12) and was compared before and after the addition of the ACAP.

With `C[C@@H]1O[C@@H](O[C@H]2[C@H](Oc3cc(O)c4c(c3)O[C@H](c3ccc(O)cc3)CC4=O)O[C@H](CO)[C@@H](O)[C@@H]2O)[C@H](O)[C@H](O)[C@H]1O` [naringin, Naringin] the “E-value (extinction coefficient, phenol band at 280 nm)” value (after addition of ACAP) was 1.5, the “E-value (extinction coefficient, phenol band at 280 nm)” value (before addition of ACAP) was 3.75 and the “naringin entrapped by the ACAP” value (calculated from the lowering of the E-value) was “at least 70%”.
